Measured values taken from publication PMC6286318, “Structure-function-guided exploration of the antimicrobial peptide polybia-CP identifies activity determinants and generates synthetic therapeutic candidates” (Communications Biology, 2018).
“Also recorded” adds a separate entry of the source. No end group written: not given here.

Experiments:
[1] = Stability assay, resistance to degradation in fetal bovine serum; assay type: in vitro ADME; conditions: GIBCO fetal bovine serum, RP-LC peak area, three independent replicates; for Resistance to protease-mediated degradation in fetal bovine serum (in words): followed up to 6 h
Procedure: Fig. 6 Hemolysis and resistance to protease-mediated degradation of engineered peptides. a Schematic of experimental design and hemolytic assay results of Pol-CP-NH2 and derivatives, where hemolytic activity was evaluated by incubating the peptides (0.1–100 μmol L^−1) with human red blood cells in PBS at room temperature for 1 h. Experiments were performed in three independent replicates. b Resistance to degradation of Pol-CP-NH2 and analogs exposed to fetal bovine serum (FBS) proteases for 6 h. Experiments were done in three independent replicates (statistical significance was determined using one-way ANOVA, *p < 0.039, error bars represent standard deviation values)
The resistance to degradation assay is detailed by Powell et al.[89], and peptides were exposed to GIBCO fetal bovine serum. The reaction kinetics were followed by reverse-phase liquid chromatography and the percentage of remaining peptide was calculated by integrating the peptide peak area.

[2] = RP-HPLC retention time (correlated with hydrophobicity); assay type: physicochemical; conditions: chromatographic, RP-HPLC Supelcosil C18 (4.6 x 150 mm), 60 Å, 5 μm; A 0.1% TFA/H2O, B 0.1% TFA in 90% ACN/H2O; 5-95% B in 30 minutes; 1.0 mL min-1; 220 nm; correlated with Heliquest hydrophobicity
Procedure: First, theoretical values of physicochemical features such as hydrophobicity, hydrophobic moment, and net positive charge were calculated, and helical wheels were generated using the Heliquest webserver[31] (Table 1 and Supplementary Figure 1). Hydrophobicity values produced by the server were correlated with retention times obtained by RP-HPLC analyses (Supplementary Table 1), confirming the accuracy of the computational predictions. Next, peptides were synthesized and tested against the Gram-negative bacteria Escherichia coli and Pseudomonas aeruginosa, as well as against the Gram-positive bacterium Staphylococcus aureus. We obtained slightly different results from those reported by Souza et al.[30], who described activity against Gram-positive bacteria but poor activity against Gram-negative species. […] MIC results were confirmed by colony-forming unit (CFU) counts of bacteria after one day of exposure to the peptides (Supplementary Figure 2).
Supplem enta r y Ta b le 1. Summary of Pol-CP-NH2 and desi gned anal ogs.
Label Pep t id e Sequence Molecular Ob s erv ed Pu rit y HPLC HC50 MIC SIe Cyt oto xic it y
Weight Molecular (%)b Retention (µmo l L-1)d Av er a g e (µmo l L-1)
(D a) Weight (D a)a Time (min)c (µmo l L-1)
aLC/ESI-MS data were obtained on a Model 6130 Infinity mass spectrometer coupled to a Model 1260 HPLC system (Agilent), using a Phenomenex Gemini C18 column (2.0 […]

[3] = Circular dichroism spectroscopy, helical fraction (fH); assay type: physicochemical; conditions: CD
Procedure: Fig. 3 Physicochemical features and structure of Pol-CP-NH2 and Ala-scan analogs. a Circular dichroism spectra of Pol-CP-NH2 and Ala-scan derivatives at 50 µmol L^−1 in water, PBS (pH 7.4) and TFE/Water (3:2, v/v) showing peptides transition from unstructured in water to helically structured in TFE/water. Circular dichroism spectra were recorded after four accumulations at 20 °C, using a 1 mm path length quartz cell, between 260 and 190 nm at 50 nm min^-1, with a bandwidth of 0.5 nm. b MIC (µmol L^−1) average for each peptide against the first set of bacteria (E. coli BL21, P. aeruginosa PA01 and PA14, and S. aureus ATCC12600) in three independent replicates vs. fH in TFE/Water solution, where blue boxes represent peptides with lower activity and red boxes show peptides with higher activity compared to the wild-type. Optimal activity is reached in most of the cases for fH values higher than the wild-type
Fig. 4 Physicochemical features and structure of Pol-CP-NH2 and second-generation analogs. Circular dichroism spectra of the peptides at 50 µmol L^−1 in water, MeOH/Water (1:1, v/v), PBS (pH 7.4), POPC (10 mmol L^−1), POPC:DOPE (3:1, 10 mmol L^−1), POPC:POPG (3:1, 10 mmol L^−1), SDS (20 mmol L^−1), TFE/Water (2:3, 3:2, 4:1, v/v) showing peptides transition from unstructured in water to helically structured in TFE/water. Circular dichroism spectra were recorded after four accumulations at 20 °C, using a 1 mm path length quartz cell, between 260 and 190 nm at 50 nm min^−1, with a bandwidth of 0.5 nm
Circular dichroism experiments were performed on a J-815 Circular Dichroism Spectropolarimeter (Jasco). Measurements conditions are described by Torres et al.[84] Peptides at 50 μmol L^−1 were analyzed in ten different environments: water, PBS (pH 7.4), methanol/water (1:1; v-v), TFE/Water (2:3, 3:2 and 4:1; v-v), 10 mmol L^−1 POPC, 10 mmol L^−1 POPC:DOPE (3:1) and 10 mmol L^−1 POPC:POPG (3:1). Vesicles were prepared according to Torres et al.[35]. A Fourier transform filter was applied to minimize background effects.

[4] = system: HEK293 human embryonic kidney cells; assay: Cytotoxicity assay (MTS); assay type: cell-based; conditions: for Cytotoxic concentration relative to MIC against P. aeruginosa: HEK293, 48 h, MTS, compared with MIC against P. aeruginosa; for Cytotoxicity (concentration showing cytotoxic activity): HEK293, 50,000 cells per well, peptides 0-64 μmol L-1, 37 °C, 48 h, MTS assay, three independent replicates
Procedure: Fig. 7 Cytotoxicity of engineered peptides. a Schematic of the experimental design for cytotoxicity assays of Pol-CP-NH2 and derivatives against HEK293 human embryonic kidney cells. Briefly, cells were cultured in DMEM medium supplemented with FBS and antibiotics at 37 °C and 5% CO2 and b results obtained by seeding HEK293 50,000 cells and incubating with peptides’ solution (0–64 μmol L^−1) at 37 °C for 48 h. Cell viability was measured by MTS assay. All experiments were performed in independent triplicates (heat map values represent mean values of three independent replicates)
Human embryonic kidney 293 (HEK 293) cells were cultured in Dulbecco’s Modified Eagle Medium suplemented with 10% Fetal Bovine Serum and 1% penicillin-streptomycin at 37 °C in 5% CO2. The day before treatment, 50,000 HEK 293 cells were seeded into each well in 96-well plates. The peptides were added at concentrations ranging from 0 to 64 μmol L^−1 and 48 h after exposure, cell viability was measured by means of MTS (dimethylthiazol-carboxymethoxyphenyl-sulfophenyl-tetrazolium) assay. Experiments were performed in three independent replicates for each condition.

[5] = Toxicity to mice in the skin infection model (body weight); assay type: in vivo; conditions: infected mice treated with 64 μmol L-1 peptide; body weight normalized by non-infected mice
Procedure: Fig. 8 In vivo activity of Pol-CP-NH2 and its analogs. a Schematic of the experimental design. Briefly, the back of mice was shaved and an abrasion was generated to damage the stratum corneum and the upper layer of the epidermis. Subsequently, an aliquot of 50 μL containing 5 × 10^7 CFU of P. aeruginosa in PBS was inoculated over each defined area. […] Four animals per group were euthanized and the area of scarified skin was excised two days post-infection b homogenized using a bead beater for 20 min (25 Hz), and serially diluted for CFU quantification (statistical significance was determined using two-way ANOVA followed by Dunnett’s test, ****p < 0.0001). c Mouse body weight measurements throughout the experiment normalized by the body weight of non-infected mice.
The anti-infective activity of peptides against P. aeruginosa strain PA14 in a mouse model was assessed according to Pane et al.[90] CD-1 IGS female mice (six-weeks-old) were used and maintained in accordance with the Guide for the Care and Use of Laboratory Animals in an AAALAC-accredited facility. All procedures were approved by the MIT’s Institutional Animal Care and Use Committee (IACUC), protocol number 1016-064-19. Two independent experiments were performed with 4 mice per group in each condition. Statistical significance was assessed using a one-way ANOVA.

In the case of “GLGTILGLLKSL-NH2 [Peptide 20, [Gly]^1-Pol-CP-NH2]”, the “Resistance to protease-mediated degradation in fetal bovine serum (in words)” value (“Resistance” below) [1] is reported as “degraded in a few minutes”.

In the case of “ILETKLGLLKSE-NH2 [Peptide 19, [Glu]^3-[Lys]^5-[Glu]^12-Pol-CP-NH2]”, the “HPLC Retention Time” value [2] is reported as 9.2 min, the “Helical fraction fH, MeOH/Water (1:1)” value ([3]; peptide 50 µmol L-1, MeOH/Water 1:1 v/v, 20 °C) is reported as 0.02 and the “Helical fraction fH, PBS” value ([3]; peptide 50 µmol L-1, PBS pH 7.4, 20 °C) is reported as 0.03. For the same substance, the “Helical fraction fH, POPC” value ([3]; peptide 50 µmol L-1, POPC 10 mmol L-1 vesicles, 20 °C) was 0, the “Helical fraction fH, POPC/DOPE (3:1)” value ([3]; peptide 50 µmol L-1, POPC:DOPE 3:1 mol:mol 10 mmol L-1 vesicles, 20 °C) was 0.03 and the “Helical fraction fH, POPC/POPG (3:1)” value ([3]; peptide 50 µmol L-1, POPC:POPG 3:1 mol:mol 10 mmol L-1 vesicles, 20 °C) was 0.04. The “Helical fraction fH, SDS” value ([3]; peptide 50 µmol L-1, SDS 20 mmol L-1 micelles, 20 °C) was 0.13, the “Helical fraction fH, TFE/Water (2:3)” value ([3]; peptide 50 µmol L-1, TFE/Water 2:3 v/v, 20 °C) was 0.24 and the “Helical fraction fH, TFE/Water (3:2)” value ([3]; peptide 50 µmol L-1, TFE/Water 3:2 v/v, 20 °C) was 0.21. For the same substance, the “Helical fraction fH, TFE/Water (4:1)” value ([3]; peptide 50 µmol L-1, TFE/Water 4:1 v/v, 20 °C) was 0.31 and the “Helical fraction fH, Water” value ([3]; peptide 50 µmol L-1, water, 20 °C, 1 mm cell) was 0.05.

With “ILGKILGLLKSL-NH2 [Peptide 15, [Lys]^4-Pol-CP-NH2]” the “Cytotoxic concentration relative to MIC against P. aeruginosa” value [4] was “two-fold to four-fold higher than their MICs”, the “Resistance” value [1] was “increased resistance to protease-mediated degradation” and the remaining at 6 h ([1]; six hours of exposure, read-out: Remaining peptide after exposure to fetal bovine serum) was ~50%.

In the case of “ILGTILGLLKSL-NH2 [WT, Pol-CP-NH2, reference compound]”, the “Cytotoxicity (concentration showing cytotoxic activity)” value ([4]; listed as wild-type peptide) is reported as 32 µmol/L and the “Toxicity to mice / body weight, in words” value [5] is reported as “did not change abruptly”.

In the case of “ILGTILKLLKSL-NH2 [Peptide 16, [Lys]^7-Pol-CP-NH2]”, the “Cytotoxicity (concentration showing cytotoxic activity)” value [4] is reported as 16 µmol/L, the “Cytotoxic concentration relative to MIC against P. aeruginosa” value [4] is reported as “two-fold to four-fold higher than their MICs” and the “Resistance” value [1] is reported as “increased resistance to protease-mediated degradation”. For the same substance, the “Toxicity to mice / body weight, in words” value [5] was “did not change abruptly; also recorded: non-toxic to mice”.
